Efficacy in % data for six molecules are collected here from patent US7314958B2, “Phenylbenzamides” (Bayer CropScience AG, priority 2002, dated 2008).

Common to all, as to type: in vivo
One test has as its system Botrytis cinerea. Briefly: Botrytis test (bean)/protective. As to conditions: protective, application rate 500 g/ha, evaluation 2 days after inoculation. The procedure:
Botrytis Test (Bean)/Protective • Solvent: 49 parts by weight of N,N-dimethylformamide • Emulsifier: 1 part by weight of alkylaryl polyglycol ether To produce a suitable preparation of active compound, 1 part by weight of active compound is mixed with the stated amounts of solvent and emulsifier, and the concentrate is diluted with water to the desired concentration. To test for protective activity, young plants are sprayed with the preparation of active compound at the stated application rate. After the spray coating has dried on, 2 small pieces of agar colonized by Botrytis cinerea are placed onto each leaf. The inoculated plants are placed in a dark chamber at about 20° C. and 100% relative atmospheric humidity. 2 days after the inoculation, the size of the infected areas on the leaves is evaluated. 0% means an efficacy which corresponds to that of the control, whereas an efficacy of 100% means that no infection is observed.

The subject of test [1] is Erysiphe graminis f. sp. hordei. The test can be described thus: Erysiphe test (barley)/protective. The conditions noted are these: protective, application rate 750 g/ha, evaluation 7 days after inoculation.
The subject of another test is Alternaria solani. The test can be described thus: Alternaria test (tomato)/protective. The conditions noted are these: protective, application rate 750 g/ha, evaluation 7 days after inoculation.

Molecules are shown by their SMILES.

The molecule `CC(C)CC(C)c1ccccc1NC(=O)c1ccccc1C(F)(F)F` (stereo not drawn) [drawing 14] registered an Efficacy in % in the test with Botrytis cinerea of 93%.

Consider `CC(C)CC(C)c1ccccc1NC(=O)c1ccccc1C(F)(F)F` (stereo not drawn) [drawing 18], for which the Efficacy in % in test [1] was 95%.

`CC(C)CC(C)c1ccccc1NC(=O)c1ccccc1C(F)(F)F` (stereo not drawn) [drawing 16]: in the test with Alternaria solani, the Efficacy in % turned out to be 100%.

Consider `CC(C)CC(C)c1ccccc1NC(=O)c1ccccc1I` (stereo not drawn) [drawing 17], for which, in the test with Alternaria solani, the Efficacy in % is listed as 100%.

The molecule `CC(C)CC(C)c1ccccc1NC(=O)c1ccccc1I` (stereo not drawn) [drawing 19] yielded an Efficacy in % in test [1] of 95%.

For the molecule `CC(C)CC(C)c1ccccc1NC(=O)c1ccccc1I` (stereo not drawn) [drawing 15], the Efficacy in % with Botrytis cinerea was determined as 93%.
